Molecules are shown by their SMILES.

These results are taken from patent US20040232089A1, “Biocidal compounds for treating water” (VANETTA S.p.A., priority 2003, published 2004).

One data set has as its system Chlorella sp. Nature of the data set: Inhibition of planktonic microalgae duplication. Type of data set: cell-based. The following applies: after 96 hours of treatment. As for the experimental part:
This test was carried out by using the microalga Chlorella sp., it is a small (2-10 microns diameter) green single celled microalga with a spherical cell shape. This genus is capable of both autotrophic and heterotrophic growth which may contribute to its ability to rapidly overtake other algae in culture. In laboratory, Chlorella coltures are started by taking from the branchs, inoculates basis, about 10 ml of monospecific colture, and adding 700 ml of […] filtered sea-water, enriched with Walne colture medium and vitamins.
Flasks with algae are kept in a thermostatic room, at 20° C.±0,5; lighting is supplied by 30 watt fluorescent neon tubes and by a 18 watt Osram-fluora lamp, with a photoperiod 16:8 light:dark. Oxygenation is warranted by a continuous air flux in the flask, this is also a way to avoid cells sedimentation. Test was carried out in the thermostatic room, at 20° C., with a 16:8 light:dark cycle in glass test-tube. The tested product has been dissolved in the culture medium, at a double concentration respect to the final wanted. […] Test-tubes were aerated, and kept in thermostatic room for 96 hours; after this period of time an aliquot of each replicate for each concentration was taken, and cellular densities were counted using an haemocytometer.

For data set [1], the system named is cysts (resting stage) of Scrippsiella trochoidea. Nature of the data set: Inhibition of dynoflagellates cysts hatching. Type of data set: cell-based. The following applies: after 6 days. The text has this: For this test, cysts (resting stage) of Scrippsiella trochoidea (Dinophyta) were used. Scrippsiella trochoidea (order Peridiniales, subfamily Calciodinelloideae) i.e. a non-toxic autotrophic orthoperidinioid dinoflagellate producing calcareous resting cysts which are abundant in coastal marine sediments. The maturation period for S. trochoidea cysts rang between 2 and 5 weeks.
S. trochoidea cysts are very convenient for experimental purposes because their sorting and culturing is comparatively easy, the cysts being relatively abundant in sediments.
Sediments were sampled in Mar Piccolo (Taranto). The utilized method allowed us to pick up the superficial sediment layer of a certain area entirely, where most of the cysts is present. The sample was immediately kept at dark at 4° C. Sediments collected about one year ago were utilized, in order to be sure that the hatching refractoriness period of cysts was finished. The sample (about 2 ml of sediment) was then dissolved in 0,45 μm filtered natural sea-water, sonified for 1 minute (Branson Sonifier) in order to brake sediment clots, resuspended in filtered sea-water and filtered on a Endecotts sieve, with a 20 μm steel mesh. […]

In the data set on Chlorella sp., `CC1(S(=O)(=O)O)CC(=O)c2ccccc2C1=O.NC(=O)c1cccnc1` (stereo not drawn) [MNB, menadione nicotinamide bisulphite] gave an LC1 of 0.002 mg/L. The LC50 – broadly, the concentration that kills 50% of the test population – in the data set with Chlorella sp. was 0.055 µg/mL; in data set [1], 2,65 mg/L.
